Assay results taken from patent US20260285857A1, “BICYCLIC AND HETEROCYCLIC AMIDE COMPOUNDS” (priority 2024, published 2026).

Test system: immunoglobulin light chain protein WIL-FL T46L
Assay: Differential scanning fluorimetry (thermal shift) assay
Assay type: binding
Conditions: temperature shift [Tm]compound-[Tm]vehicle, recombinant WIL-FL T46L

| SMILES | DSF (Table A) | DSF (Table B) |
| --- | --- | --- |
| Cc1cc(OC[C@H](C)c2ccccc2)cn2nc(C(=O)NC3CCC(C)(O)C3)nc12 (stereo partly drawn) [Compound 315] | **** (>1.5-2.5° C.=****) |  |
| Cc1cc(N2CC[C@](C)(c3ccccc3)C2)cn2nc(C(=O)N3CC[C@@]4(CCN(C5CCC(C(=O)O)CC5)C4)C3)nc12 (stereo partly drawn) [Compound 376] | ***** (>2.5° C.=*****) |  |
| Cc1cc(N2CC[C@](C)(c3ccccc3)C2)cn2nc(C(=O)N3CC[C@@]4(CCN(C(=O)C56CC(C(=O)O)(C5)C6)C4)C3)nc12 [Compound 712] |  | ***** (>2.5° C.=*****) |
| Cc1cc(N2CC[C@](C)(c3ccccc3F)C2)cn2nc(C(=O)N3CC[C@@]4(CCN(c5cccc(C(=O)O)n5)C4)C3)nc12 [Compound 749] |  | ***** (>2.5° C.=*****) |
| Cc1cc(N2CC[C@](C)(c3ccccc3)C2)cn2nc(C(=O)N3CC[C@H](O)C3)nc12 [Compound 174] | ***** (>2.5° C.=*****) |  |
| Cc1cc(N2CC[C@](C)(c3ccccc3)C2)cn2nc(C(=O)NC3CN(c4cccc(C(=O)O)n4)C3)nc12 [Compound 217] | ***** (>2.5° C.=*****) |  |
| Cc1cc(N2CC[C@](C)(c3ccccc3)C2)cn2nc(C(=O)NC3CC4(C3)CC(C(=O)O)C4)nc12 (stereo partly drawn) [Compound 112] | ***** (>2.5° C.=*****) |  |
| CCS(=O)(=O)NCc1cc(N2CC[C@](C)(c3ccccc3)C2)cn2nc(C(=O)NC)nc12 [Compound 349] | ***** (>2.5° C.=*****) |  |
| Cc1cc(N2CC[C@](C)(c3ccccc3)C2)cn2nc(C(=O)NC34CCC(C(C)(C)O)(C3)C4)nc12 [Compound 208] | ***** (>2.5° C.=*****) |  |
| Cc1cc(N2CC[C@](C)(c3ccccc3)C2)cn2nc(C(=O)N3CC4CN(c5cccc(C(=O)O)n5)CC4C3)nc12 (stereo partly drawn) [Compound 213] | ***** (>2.5° C.=*****) |  |
| COc1cc(C(=O)O)cc(N2CC[C@@]3(CCN(C(=O)c4nc5c(C)cc(N6CC[C@](C)(c7ccccc7)C6)cn5n4)C3)C2)n1 [Compound 719] |  | ***** (>2.5° C.=*****) |
| Cc1cc(N2CC[C@](C)(c3ccccc3)C2)cn2nc(C(=O)N3CC[C@@]4(CCN(c5cc(C(=O)O)ccn5)C4)C3)nc12 [Compound 714] |  | ***** (>2.5° C.=*****) |
| C[C@]1(c2ccccc2)CCN(c2cc(CO)c3nc(C(=O)NC4CC5(CCC5N5CC6C(C5)C6C(=O)O)C4)nn3c2)C1 (stereo partly drawn) [Compound 346] | ***** (>2.5° C.=*****) |  |
| Cc1ccc(C(=O)O)nc1N1CCC2(CCN(C(=O)c3nc4c(C)cc(N5CC[C@](C)(c6ccccc6)C5)cn4n3)C2)C1 (stereo partly drawn) [Compound 692] |  | ***** (>2.5° C.=*****) |
| CC(O)c1cc(N2CC[C@](C)(c3ccccc3)C2)cn2nc(C(=O)NC3CC4(C3)CC(N3CC5C(C3)C5C(=O)O)C4)nc12 (stereo partly drawn) [Compound 341] | ***** (>2.5° C.=*****) |  |
| Cc1cc(N2CC[C@](C)(c3ccccc3)C2)cn2nc(C34CC(CN)(CO3)C4)nc12 [Compound 58] | ***** (>2.5° C.=*****) |  |
| CNC(=O)c1nc2c(C)cc(OC3CCC3(C)c3ccccc3)cn2n1 (stereo not drawn) [Compound 16, N,8-dimethyl-6-(2-methyl-2-phenylcyclobutoxy)-[1,2,4]triazolo[1,5-a]pyridine-2-carboxamide] | * (0-0.5° C.=*) |  |
| CNC(=O)c1nc2c(C)cc(N3CCC(C)(c4nccs4)C3)cn2n1 (stereo not drawn) [Compound 15, N,8-dimethyl-6-(3-methyl-3-(thiazol-2-yl)pyrrolidin-1-yl)-[1,2,4]triazolo[1,5-a]pyridine-2-carboxamide] | ***** (>2.5° C.=*****) |  |
| Cc1cc(N2CC[C@](C)(c3ccccc3)C2)cn2nc(C34CC(CO3)C4N3CC4(COC4)NC3=O)nc12 (stereo partly drawn) [Compound 509, 7-(1-(8-methyl-6-((R)-3-methyl-3-phenylpyrrolidin-1-yl)-[1,2,4]triazolo[1,5-a]pyridin-2-yl)-2-oxabicyclo[2.1.1]hexan-5-yl)-2-oxa-5,7-diazaspiro[3.4]octan-6-one] |  | ***** (>2.5° C.=*****) |
| CCC1(c2ccccc2)CN(c2cc(C)c3nc(C(=O)N4CC5CN(c6cccc(C(=O)O)n6)CC5C4)nn3c2)C1 (stereo not drawn) [Compound 393] | ***** (>2.5° C.=*****) |  |
| Cc1cc(N2CC[C@](C)(c3ccccc3)C2)cn2nc(C(=O)N[C@H]3COC[C@@H]3F)nc12 [Compound 121] | ***** (>2.5° C.=*****) |  |
